# Measured values reported in a melting point compilation (Tetko et al.; mined from patent text by program, amines drawn as free bases though some values may be those of a salt).
row,melting point [°C],Structure (SMILES)
1,120,CCN(CC)c1ccc([N+](=O)[O-])c(N2CCN(C(C)=O)CC2)n1
2,146,COc1cc2c(cc1OC)CN(CCCCc1ccc(NC(=O)c3nc4ccccc4nc3C)cc1)CC2
3,258,O=C(N[C@H]1CC[C@H](CCN2CCC(c3cccc4c3CCO4)CC2)CC1)c1ccc(-n2cccn2)cc1
4,227 to 230,CCN1CCN(c2ccc(Nc3cc(-c4cnc5cc[nH]c5c4)cn4ccnc34)nc2)CC1
5,132 to 134,O=C(C=P(c1ccccc1)(c1ccccc1)c1ccccc1)CSc1ccccc1
6,146 to 149,O=S1(=O)NCCNc2ccc(Oc3ccccc3)cc21
7,118 to 122,O=C1OC(c2ccccc2)N=C1CCCCNC(=O)c1ccccc1 (centres undefined)
8,186 to 189,COc1cccc(P(=O)(c2ccccc2)c2ccccc2)c1I
9,280 to 283,c1cc(-c2ccc(N3CCNCC3)nc2)nc(Nc2ccc3[nH]nnc3c2)n1
10,158,O[C@@H]1CN=C(c2ccc(Cl)c(Cl)c2)O[C@H]1c1ccccc1 (racemic)
11,214 to 217,O=[N+]([O-])c1cn2c(n1)OC(COc1ccc(N3CCN(CC4CCN(Cc5ccc(C(F)(F)F)cc5)CC4)CC3)cc1)CC2 (centres undefined)
12,155,CCOC(=O)CC1C(=O)N(CCc2c[nH]c3cc(C)ccc23)CCN1C(=O)c1ccccc1 (centres undefined)
13,56 to 57,O=C(CCOCc1ccc2ccccc2c1)c1ccccc1
14,222 to 224,CN(C)C(=O)c1nc(-c2ccccc2)nc2c1c1cc(Cl)ccc1n2C
15,199 to 202,CCc1nc2c(N)nc3ccccc3c2n1CCCC#Cc1ccccc1
16,98 to 106,O=C1c2ccccc2C(=O)N1OCC1COCOC1
17,128 to 130,NC1([C@@H]2CCN(c3ccc4c(=O)c(C(=O)O)cn([C@@H]5C[C@@H]5F)c4c3Cl)C2)CC1

row,melting point [°C],Structure (SMILES)
1,171 to 172,COc1cc(CCCCC2OC(=O)NC2=O)ccc1OCc1coc(/C=C/c2ccccc2)n1 (centres undefined)
2,146 to 148,O=C1C(=C(O)Cc2ccccc2)SC(=S)N1c1ccccc1
3,161 to 162,O=P(c1ccccc1)(c1ccccc1)c1ccccc1C1OCCO1
4,126 to 129,COCc1ccc(OCC(=O)O)c(NC(=O)c2ccc(OCCCCc3ccccc3)cc2)c1
5,58 to 60,COCCN(CCOC)CCc1ccc(Nc2ncc3c(n2)-c2ccccc2C(c2cccc(Br)c2)C3)cc1 (centres undefined)
6,159 to 160,N#Cc1cc(-c2ccccc2)[nH]c1Sc1ccccc1N
7,219 to 221,O=C(Nc1ccc(C(=O)N2Cc3ccccc3Cc3ccccc32)cc1)c1ccccc1
8,194 to 196,C[C@]1(COc2ccc3nc(N4CCC(=Cc5ccc(OC(F)(F)F)cc5)CC4)ccc3c2)Cn2cc([N+](=O)[O-])nc2O1
9,221,O=C(O)CN1C(=O)C(=Cc2ccc(OCCc3ccc(F)cc3)c(OCc3ccccc3)c2)SC1=S
10,286 to 288,CCn1c(=O)c2nc(C=NO)cn2c2ccccc21
11,223 to 233,O=C(O)[C@H](Cc1cncn1COCc1ccccc1)NS(=O)(=O)CCc1ccccc1
12,279 to 281,O=C(O)Cc1c[nH]c2nc(Nc3ccccc3)nn2c1=O
13,257 to 258,O=C(C(=O)N1CCC(c2nnnn2-c2ccccc2)CC1)c1c[nH]c2c(-n3ccnn3)ncc(F)c12
14,78 to 81,O=C1OC(CCCCN2CCN(c3ccccn3)CC2)CN1c1ccccc1 (centres undefined)
15,237 to 239,O=C(Cn1c2c(c(=O)n3nc(-c4ccc(Cl)cc4)cc13)CN(C1CCCCC1)C2=O)c1ccccc1
16,188 to 190,Cc1c(CCC2CC(O)CC(=O)O2)c2c(c(C)c1OC(=O)c1ccccc1)CC(C)(C)O2 (centres undefined)

# The remaining lines, values behind:
row,Structure (SMILES),melting point [°C]
1,COc1cc(C)nc(CNC(=O)NS(=O)(=O)c2ccccc2S(=O)(=O)N(C)C)n1,153 to 156
2,NC12CC3CC(C1)CC(O)(C3)C2,260 to 264
3,O=c1ncc(F)cn1CCO,134 to 136
4,CC12CCCC(C1)OC2=O (centres undefined),37 to 38
5,Cc1ccc(S(=O)(=O)OCC(O)Cc2cccc(C(C)(C)C)c2O)cc1 (centres undefined),98 to 101
6,Clc1c(Br)cncc1Br,101 to 103
7,FC(F)(F)CNC(=S)NCC(F)(F)F,152 to 153
8,COc1ccc2cc([C@H](C)C(=O)NOCC(=O)N3CCC(CO[N+](=O)[O-])CC3)ccc2c1,45 to 47
9,CC1CC2=CC(=O)C=CC2(C)C2C(=O)CC3(C)C(=O)CCC3C12 (centres undefined),257 to 259
10,O=C(O)c1c[nH]c(=S)n1C1CCc2c(F)cc(F)cc2C1 (centres undefined),250 to 252
11,O=C(c1ccc(Cl)cc1)c1ccc(CBr)cc1Cl,88 to 90
12,CCOC(=O)C(C)Cc1cccc(-c2nc(=O)c3ccccc3s2)n1 (centres undefined),120 to 121
13,CC(=O)SCCC(=O)N1[C@@H](c2ccccc2O)SC[C@H]1C(=O)N[C@@H](CC(C)C)C(=O)O,78 to 84
14,OCCNc1nnc(-c2ccc(F)c(F)c2Nc2ccc(I)cc2F)o1,100 to 103
15,O=CC(=O)c1ccccc1,120 to 122
16,CN(C)c1ccc(C(=CC=CC2N(C)c3ccccc3C2(C)C)c2ccc(N(C)C)cc2)cc1 (centres undefined),182 to 183
17,O=C1NCCC[C@@H]1NS(=O)(=O)c1cccc(C(F)(F)F)c1,158 to 160
18,CCOCCn1cc2c(C3C(=O)Nc4ccc(Cl)cc43)nc(NCCc3cccnc3)nc2n1 (centres undefined),224 to 226
19,COC(=O)c1cc(Cl)c(N)cc1O,138 to 139
20,O=C(O)c1cc2cc(-c3ccc(O)cc3)ccc2o1,297 to 300
21,Cc1cc2c(s1)C(C(=O)O)CC2=O (centres undefined),137 to 139
22,COC(=O)c1nc(Cl)c(F)c(N)c1Cl,128 to 131

row,Structure (SMILES),melting point [°C]
1,NC(=NCC(F)(F)F)Nc1ccnc(SCCCC(=O)O)n1,234 to 236
2,COc1cc2c(cc1O)CCN(C(=O)c1ccccc1OC)C2=O,199 to 200
3,COC(=O)c1ccc(OCC2CO2)cc1O (centres undefined),53 to 55
4,COc1cccc2c1nc(C(F)F)n2-c1nc(Nc2cccnn2)nc(N2CCOCC2)n1,261 to 263
5,CCc1c(C(C)C)nc(C(C)C)c(C(C)O)c1-c1ccc(F)cc1O (centres undefined),190 to 191
6,Nc1cc(=O)n(Cc2ccc(Br)c(Br)c2)[nH]1,182
7,Cc1c(C(=O)Nc2ccc(-c3ccc(S(=O)(=O)NC(C(=O)O)C(C)C)cc3)cc2)oc2ccccc12 (centres undefined),264 to 266
8,Cc1ccc(-c2occc2C(N)=O)cc1,174
9,CC(C)N(C(=O)CN1C(=O)C(Cc2n[nH]c3ccccc23)C(=O)N(c2ccccc2)c2ccccc21)c1ccc(C(F)(F)F)cc1 (centres undefined),145 to 148
10,CCCCNc1cc(C(=O)O)cc(S(N)(=O)=O)c1Oc1ccc(S(N)(=O)=O)cc1,265
11,CC(C)C(=O)O[C@H]1[C@H](C)OC(=O)[C@@H](NC(=O)OC(C)(C)C)COC(=O)[C@@H]1CC(=O)OC(C)(C)C,170 to 172
12,OC1CSC(Oc2cncc(-c3ccc(F)cn3)c2)C(O)C1O (centres undefined),166 to 190
13,CC(C)[C@H](NC(=O)N(C)Cc1csc(N)n1)C(=O)N[C@@H](Cc1ccccc1)[C@H](O)[C@H](O)[C@H](Cc1ccccc1)NC(=O)OC(C)(C)C,103 to 107
14,O=C1C(=CNCCO)Cc2c(Cl)cccc21,164 to 166
15,C/C(=N\OCCN1CCOCC1)[C@H]1CC[C@H]2[C@@H]3CC=C4C[C@@H](O)CC[C@]4(C)[C@H]3CC[C@]12C,137 to 138
16,CNC(=O)ON=C1SCCN(C(=O)NC)C1=O,187 to 189
17,Cc1cc(-c2nc3cccnn3c2-c2ccnc(NC(=O)c3ccc(Cl)cc3)c2)ccc1F,207 to 209
18,CN(c1cccc2cc(C(=O)O)[nH]c12)S(=O)(=O)c1ccccc1C(F)(F)F,211 to 212
19,Nc1ccc(OS(=O)(=O)c2ccc(-n3ccnc3)cc2)cc1[N+](=O)[O-],209
20,Cn1c(C(F)(F)F)cc(=O)n(C(c2ccc3c(c2)C(=O)NC3=O)c2nsc3ccccc23)c1=O (centres undefined),204 to 208
21,COc1ccc2oc(N)c(C#N)c(=O)c2c1,320
22,Cc1nc(CC#N)c2n1-c1ccc(Cl)cc1C(c1ccccc1Cl)=NC2,212 to 214

row,Structure (SMILES),melting point [°C]
1,CC(=O)N1CCc2ccc(Cl)cc2C(c2ccc([N+](=O)[O-])cc2)=N1,227 to 229
2,COC(=O)C1(CC(N)=O)C(=O)N(Cc2ccc(Br)cc2F)C(=O)c2ccccc21 (centres undefined),180 to 182
3,CCOc1nc(O)cc(CCl)n1,159 to 161
4,N#Cc1cnc2cc(/C=C/c3ccncc3)sc2c1Nc1ccc(Oc2ccccc2)cc1,240 to 241
5,Cc1cc(C(=O)O)c(Cl)c([N+](=O)[O-])c1C,160 to 163
6,O=S1(=O)NC(C2CCCCC2)Nc2c(Br)cc(Br)cc21 (centres undefined),166 to 167
7,CC(C)(C)n1nc2c(S)ncnc2c1O,> 300
8,C#CCOc1nnc(Cl)c2ccccc12,134 to 136
9,NC(=O)c1cnn2cccc2c1NC1CCC(O)CC1 (centres undefined),192
10,CCN(C)C(N)=C(C#N)C#N,140 to 141
11,O=C1C2CC3CCC(C2)N3C1C(c1ccccc1)c1ccccc1 (centres undefined),137 to 138
12,COc1cccc2c(=O)n(S(=O)(=O)c3ccc(Cl)cc3)c(=O)[nH]c12,220 to 222
13,O=C1C2CCC(N2)C(=O)N1Cc1ccccc1,72
14,CCOC(OCC)c1ncn(CCC(O)(c2ccc(F)cc2F)n2cncn2)n1 (centres undefined),85 to 87
15,COc1ccc(CN2C(=O)CN(Cc3ccc(C(=O)O)cc3)S2(=O)=O)c(OC)c1,175 to 177
16,CCn1c2c(c3ccccc31)SCCC2(C)C=O (centres undefined),88.5 to 90
17,N#CCCCSc1nccc(N)n1,99 to 100
18,NS(=O)(=O)c1cc2ccc(O)cc2c(S(N)(=O)=O)c1-c1cccc(Cl)c1O,135 to 137
19,CC(C)Oc1cc([N+](=O)[O-])c(F)cc1C#N,116 to 118
20,CCOC(=O)c1cn(CC)nc1OCc1ccc(OCc2nc(-c3ccco3)oc2C)c(OC)c1,114 to 115
21,C=CCOC(=O)c1ccc(NC(=O)C(C(N)=O)c2ccc3c(c2)C(C)(C)CCC3(C)C)cc1 (centres undefined),210 to 211
22,CCOC(=O)C(CCC(=O)O)(CCC(=O)O)C(=O)OCC,120
